For one data set, the system named is ABCA1 mRNA. As to the kind of experiment: ABCA1 mRNA - HepG2 (qRT-PCR). The format is cell-based, human. The conditions noted are these: Homo sapiens; ABCA1 mRNA-HepG2 assay (Table 7). The source says:
qRT-PCR. For cell samples, treated cells were lysed with RLT plus lysis buffer (Qiagen). RNA was isolated with Qiagen RNEASY® Plus columns per manufacturer instructions, then reverse-transcribed to cDNA using […]® III Reverse Transcriptase (200 U/μL, Invitrogen) per supplier protocol. qPCR experiments were either performed with TAQMAN® gene expression master mix (Invitrogen) on a StepOne™ qPCR instrument or with […]® SYBR® Green SuperMix (Quanta Biosciences) on CFX Connect™ Real-Time PCR Detection System (BioRad), with fold-change quantified by ΔΔCt. For animal samples, 100 mg tissue was homogenized in 1 mL acid-guanidinium-phenol based reagent sold under the tradename TRIZOL® (Ambion), mixed vigorously in chloroform, and separated by centrifugation. Aqueous layer containing RNA was added to Qiagen RNEASY® Plus column; remaining stops were as described above for cell lysates.

Data set [1] has as its system ABCA1. As to the kind of experiment: ABCA1 firefly reporter assay in CCF-001 cells. The format is cell-based. The settings on record: ABCA1 firefly reporter assay in CCF-001 cells (Table 8).
The test system of a further data set is 5×FAD mice. In words: 5×FAD mice treated with CL3-3. The format is in vivo, mouse. The settings on record: female 5×FAD mice, 10 mg/kg PO daily, 10 days. On the procedure:
To evaluate preclinical efficacy, CL3-3 was studied in 5×FAD mice. […] Female 5×FAD mice (JAX) at 16 weeks of age were treated for 10 days with either CL3-3 (10 mg/kg PO gavage daily) or vehicle. Upon completion of treatment, mouse whole brain hemispheres were analyzed for mRNA expression levels of pro-inflammatory markers including CCL2, CCL3, CCL5 CXCL10, IL-6, COX2 and NOS2. Plasma from the same mice was analyzed.

The subject of the next data set is E3/4FAD mice. As to the kind of experiment: E3/4FAD (EFAD) mice treated with CL3-3. The format is in vivo, mouse. The procedure: A longer-term study was conducted in EFAD mice, which express the same five human AD mutations as 5×FAD mice and have also undergone targeted replacement of the mouse Apoe gene with one of the human APOE alleles: ε2, ε3, or ε4. In this study, EFAD mice with heterozygous ε3/ε4 alleles (E3/4FAD) were treated from 4 months of age until 6 months of age with CL3-3 (100 mg/kg/day in hydrogel replacement of drinking water) or vehicle.
Multiple readouts of AD-related pathology were conducted with subsets of these mice. Brain regions were first analyzed via ELISA for levels of soluble, oligomeric Aβ (oAβ), which is hypothesized to be the toxic form of amyloid that underlies downstream pathology and clinical presentation associated with AD. In E3/4FAD mice, oAβ levels decreased in the hippocampus in male mice and in the cerebral cortex in female mice. Treatment with CL3-3 also was synaptoprotective in cerebral cortex regions, particularly in male mice. Expression of synaptic proteins drebrin and PSD95 were increased in male E3/4FAD mice treated with CL3-3, as determined by western blot analysis.
The remaining subset of brain hemispheres from the treated E3/4FAD mice were fixed and analyzed by staining with thioflavin S (Thio-S). Thio-S is a fluorescent dye that binds to abnormally folded protein aggregates (i.e., amyloid).

For data set [2], the system named is ABCA1. As to the kind of experiment: ABCA1-linked luciferase assay in HepG2 cells. The format is cell-based. The conditions noted are these: Homo sapiens; HepG2 liver cells; Example 2, compounds active in ABCA1-Luc assay; read-out: EC50 in HepG2 liver cells. The procedure: Luciferase. HepG2 cells (RRID:CVCL 0027) purchased from ATCC and used without further validation were stably transfected with pGreenFire1-LXRE-in-ABCA1 plasmid, which contains the ABCA1 promoter sequence linked to a luciferase response element, then selected over multiple generations with puromycin and frozen in liquid N2. For assays, transfected cells were plated 24 hours in medium (Gibco) containing charcoal-stripped serum (Gemini), followed by a 24-hour treatment. Cells were lysed with passive lysis buffer (Promega), frozen at −80° C. for 15 minutes, and shaken at room temperature for 2 hours before quantification with luciferase assay system (Promega) on a Synergy Neo2 plate reader.

For the next data set, the system named is CD1 mice. In words: CD1 mice, three daily p.o. treatments, LXR agonist adverse effects. The format is in vivo, mouse. The conditions noted are these: 10 mg/kg p.o., three days. The source says:
Neutrophil Counts. […] After final dose, blood samples were run on an Advia 120 analyzer (Bayer) for neutrophil counts.

The results in this text go back to patent publication US20240199572A1, “COMPOUNDS, COMPOSITIONS, AND METHODS FOR TREATING TYPE 2 DIABETES AND DEMENTIA” (THE BOARD OF TRUSTEES OF THE UNIVERSITY OF ILLINOIS, priority 2021, published 2024).

With `CCOC(=O)c1cccc(NC(=O)c2sc(Cl)cc2S(=O)(=O)N(C)c2ccc(OCC)nc2)c1` [CL2-159, Ethyl 3-(5-chloro-3-(N-(6-ethoxypyxidin-3-yl)-N-methylsulfamoyl)thiophene-2-carboxamido)benzoate], the EC50 was above 5 µM in the data set on ABCA1 mRNA and 5.39 µM in the data set with ABCA1 [1].

As for `CCOc1ccc(N(C)S(=O)(=O)c2cc(Cl)sc2C(=O)Nc2cccc(C(=O)OCCOC)c2)cc1OCC` [CL2-167, 2-Methoxyethyl 3-(5-chloro-3-(N-(3,4-diethoxyphenyl)-N-methylsulfamoyl)thiophene-2-carboxamido) benzoate], the EC50 in the data set on ABCA1 mRNA worked out at 5 µM; with ABCA1 [1], 2.19 µM.

As to `CCOc1ccc(N(C)S(=O)(=O)c2cc(Cl)sc2C(=O)Nc2cccc(C(=O)OCCOCCOC)c2)cc1OCC` [CL2-168, 2-(2-Methoxyethoxy) ethyl 3-(5-chloro-3-(N-(3,4-diethoxyphenyl)-N-methylsulfamoyl)thiophene-2-carboxamido) benzoate], the EC50 in the data set with ABCA1 mRNA turned out to be 3.6 µM; with ABCA1 [1] it was 1.36 µM.

For `CCOC(=O)c1cccc(NC(=O)c2sc(Cl)cc2S(=O)(=O)N(C)c2ccc(N(C)C)cc2)c1` [CL2-181, Ethyl 3-(5-chloro-3-(N-(4-(dimethylamino)phenyl)-N-methylsulfamoyl)thiophene-2-carboxamido)benzoate], the figures for the EC50 with ABCA1 mRNA and in the data set on ABCA1 [1] were 5 µM and 4.99 µM, respectively.

Take `CCOC(=O)c1cccc(NC(=O)c2sc(Cl)cc2S(=O)(=O)N(C)c2cnc(OCC)c(F)c2)c1` [CL2-184, Ethyl 3-(5-chloro-3-(N-(6-ethoxy-5-fluoropyridin-3-yl)-N-methylsulfamoyl)thiophene-2-carboxamido)benzoate]: the EC50 with ABCA1 mRNA amounted to 4.5 µM; in the data set with ABCA1 [1], 4.95 µM.

Consider `CCOC(=O)c1cc(Cl)cc(NC(=O)c2sc(Cl)cc2S(=O)(=O)N(C)c2ccc(OCC)c(OCC)c2)c1` [CL2-187, Ethyl 3-chloro-5-(5-chloro-3-(N-(3,4-diethoxyphenyl)-N-methylsulfamoyl)thiophene-2-carboxamido) benzoate], for which the EC50 in the data set with ABCA1 mRNA is 0.81 µM; with ABCA1 [1], 0.247 µM.

With `CCOC(=O)c1cc(N)cc(NC(=O)c2sc(Cl)cc2S(=O)(=O)N(C)c2ccc(OCC)c(OCC)c2)c1` [CL2-191, Ethyl 3-amino-5-(5-chloro-3-(N-(3,4-diethoxyphenyl)-N-methylsulfamoyl)thiophene-2-carboxamido)benzoate], the EC50 was above 5 µM in the data set on ABCA1 mRNA and 8.42 µM in the data set with ABCA1 [1].

Regarding `CCOC(=O)c1cc(Cl)cc(NC(=O)c2sc(Cl)cc2S(=O)(=O)N(C)c2ccc(OCC)c(OC)c2)c1` [CL3-3, Ethyl 3-chloro-5-(5-chloro-3-(N-(4-ethoxy-3-methoxyphenyl)-N-methylsulfamoyl)thiophene-2-carboxamido) benzoate], the EC50 in the data set on ABCA1 mRNA stood at 0.3 µM; with ABCA1 [1], 0.099 µM; in the data set on ABCA1 [2], 0.3 µM. The “Brain mRNA levels of inflammatory markers (CCL2, CCL3, CCL5, CXCL10, IL-6, COX2, NOS2)” value in the data set with 5×FAD mice is “reduced”. Also, the “Circulating TG levels” value with 5×FAD mice is recorded as “not significantly altered”. The “% area stained by Thio-S” value with E3/4FAD mice (all measured brain regions, males and females) is on record as “decreased”. For the same compound, the “Expression of synaptic proteins drebrin and PSD95” value in the data set with E3/4FAD mice (male E3/4FAD mice, western blot) is reported as “increased”.

Turning to `CCOC(=O)c1cc(Cl)cc(NC(=O)c2sc(Cl)cc2S(=O)(=O)N(C)c2ccc(OC)c(OC)c2)c1` [CL3-9, Ethyl 3-chloro-5-(5-chloro-3-(N-(3,4-dimethoxyphenyl)-N-methylsulfamoyl)thiophene-2-carboxamido)benzoate], the EC50 was determined as 1.2 µM in the data set on ABCA1 mRNA and 0.53 µM in the data set on ABCA1 [1].

As for `CCOc1ccc(N(C)S(=O)(=O)c2cc(Cl)sc2C(=O)Nc2cc(Cl)cc(C(=O)OC)c2)cc1OC` [CL3-10, Methyl 3-chloro-5-(5-chloro-3-(N-(4-ethoxy-3-methoxyphenyl)-N-methylsulfamoyl)thiophene-2-carboxamido)benzoate], the EC50 was found to be 1.1 µM with ABCA1 mRNA and 0.339 µM with ABCA1 [1].

Regarding `CCOc1ccc(N(C)S(=O)(=O)c2cc(Cl)sc2C(=O)Nc2cc(Cl)cc(C(=O)OCCOC)c2)cc1OC` [CL3-11, 2-Methoxyethyl 3-chloro-5-(5-chloro-3-(N-(4-ethoxy-3-methoxyphenyl)-N-methylsulfamoyl)thiophene-2-carboxamido)benzoate], the EC50 amounted to 0.42 µM in the data set with ABCA1 mRNA and 0.066 µM with ABCA1 [1].

Regarding `CCOc1ccc(N(C)S(=O)(=O)c2cc(Cl)sc2C(=O)Nc2cc(Cl)cc(C(=O)OCCOCCOC)c2)cc1OC` [CL3-12, 2-(2-Methoxyethoxy) ethyl 3-chloro-5-(5-chloro-3-(N-(4-ethoxy-3-methoxyphenyl)-N-methylsulfamoyl)thiophene-2-carboxamido)benzoate], the EC50 in the data set with ABCA1 mRNA was 0.42 µM; in the data set with ABCA1 [1] it was 0.138 µM.

Turning to `O=S(=O)(c1ccccc1)N(CC(F)(F)F)c1ccc(C(O)(C(F)(F)F)C(F)(F)F)cc1` [Compound T0901317, reference compound], in the data set with CD1 mice, the Circulating neutrophil levels entry is “reduced” and the “Plasma TG” value is “increased”.

Regarding `CCOC(=O)c1cc(F)cc(NC(=O)c2sc(Cl)cc2S(=O)(=O)N(C)c2ccc(OCC)c(OC)c2)c1` [GR1-053, Ethyl 3-(5-chloro-3-(N-(4-ethoxy-3-methoxyphenyl)-N-methylsulfamoyl)thiophene-2-carboxamido)-5-fluorobenzoate], the EC50 with ABCA1 mRNA stood at 0.24 µM; in the data set with ABCA1 [1], 0.029 µM.

With `CCOc1ccc(N(C)S(=O)(=O)c2cc(Cl)sc2C(=O)Nc2cccc(C(=O)OC)c2)cc1` [KB7-123, Methyl 3-(5-chloro-3-(N-(4-ethoxyphenyl)-N-methylsulfamoyl)thiophene-2-carboxamido)benzoate], the EC50 with ABCA1 mRNA was found to be 3.3 µM; in the data set on ABCA1 [1] it was 1.49 µM.
